# Measurements: ChEMBL document CHEMBL3272098, “Reactions of 2-acyloxyisobutyryl halides with nucleosides. 7. Synthesis and biological evaluation of some 2,2'-anhydro-1(3',5'-di-O-acyl-beta-D-arabinofuranosyl)cytosine hydrochlorides” (J Med Chem, 1976)
# Activity calls are given as the source filed them. The calls are words filed in the database; no cut-off is given here.
# Tested on: HeLa
# Experiment: Cytotoxicity against human HeLa cells after 48 hrs by Coulter counting analysis
# Type: functional
# Details: read-out: ED50 (the source's name)
row,Compound,EC50 [µg/mL]
1,CCCCCCCCCC(=O)OC[C@H]1O[C@@H]2[C@@H](Oc3nc(=N)ccn32)[C@@H]1OC(=O)CCCCCCCCC.Cl,0.2
2,CCCCCCCCCCCCCCCCCC(=O)OC[C@H]1O[C@@H]2[C@@H](Oc3nc(=N)ccn32)[C@@H]1OC(=O)CCCCCCCCCCCCCCCCC.Cl,3.8

# Tested on: Vaccinia virus
# Experiment: Antiviral activity against Vaccinia virus IHD infected in African green monkey BGM cells after 6 days by plaque reduction assay
# Type: functional
# Details: Orthopoxvirus vaccinia, 144 h, read-out: ED50 (the source's name)
row,Compound,EC50 [nM]
1,CCCCCCCCCC(=O)OC[C@H]1O[C@@H]2[C@@H](Oc3nc(=N)ccn32)[C@@H]1OC(=O)CCCCCCCCC.Cl,320
2,CCCCCCCCCCCCCCCCCC(=O)OC[C@H]1O[C@@H]2[C@@H](Oc3nc(=N)ccn32)[C@@H]1OC(=O)CCCCCCCCCCCCCCCCC.Cl,> 30000

# Tested on: Herpesviridae sp.
# Experiment: Antiviral activity against Herpes simplex virus HF infected in African green monkey BGM cells after 6 days by plaque reduction assay
# Type: functional
# Details: 144 h, read-out: ED50 (the source's name)
row,Compound,EC50 [nM]
1,CCCCCCCCCC(=O)OC[C@H]1O[C@@H]2[C@@H](Oc3nc(=N)ccn32)[C@@H]1OC(=O)CCCCCCCCC.Cl,1100
2,CCCCCCCCCCCCCCCCCC(=O)OC[C@H]1O[C@@H]2[C@@H](Oc3nc(=N)ccn32)[C@@H]1OC(=O)CCCCCCCCCCCCCCCCC.Cl,> 30000

# Tested on: BGM
# Experiment: Antiviral activity against Poliovirus type 1 Mahoney infected in African green monkey BGM cells after 5 days by pulp disk diffusion assay
# Type: functional, cell-based
# Details: Human poliovirus 1 Mahoney
row,Compound,Activity
1,CCCCCCCCCC(=O)OC[C@H]1O[C@@H]2[C@@H](Oc3nc(=N)ccn32)[C@@H]1OC(=O)CCCCCCCCC.Cl,inactive
2,CCCCCCCCCCCCCCCCCC(=O)OC[C@H]1O[C@@H]2[C@@H](Oc3nc(=N)ccn32)[C@@H]1OC(=O)CCCCCCCCCCCCCCCCC.Cl,inactive

# Tested on: Measles morbillivirus
# Experiment: Antiviral activity against Measles virus infected in African green monkey BGM cells after 5 days by pulp disk diffusion assay
# Type: functional, organism-based
# Details: not given
row,Compound,Activity
1,CCCCCCCCCC(=O)OC[C@H]1O[C@@H]2[C@@H](Oc3nc(=N)ccn32)[C@@H]1OC(=O)CCCCCCCCC.Cl,inactive
2,CCCCCCCCCCCCCCCCCC(=O)OC[C@H]1O[C@@H]2[C@@H](Oc3nc(=N)ccn32)[C@@H]1OC(=O)CCCCCCCCCCCCCCCCC.Cl,inactive

# Tested on: unidentified influenza virus
# Experiment: Antiviral activity against Influenza virus Ao/WNS infected in monkey LLC-MK2 cells after 5 days by pulp disk diffusion assay
# Type: functional, organism-based
# Details: not given
row,Compound,Activity
1,CCCCCCCCCC(=O)OC[C@H]1O[C@@H]2[C@@H](Oc3nc(=N)ccn32)[C@@H]1OC(=O)CCCCCCCCC.Cl,inactive
2,CCCCCCCCCCCCCCCCCC(=O)OC[C@H]1O[C@@H]2[C@@H](Oc3nc(=N)ccn32)[C@@H]1OC(=O)CCCCCCCCCCCCCCCCC.Cl,inactive

# Tested on: L1210
# Experiment: Antitumor activity against mouse L1210 cells allografted in BDF1 mouse assessed as increase in life span at 50 mg/kg, ip administered 24 hrs post-implantation measured up to 30 days relative to control
# Type: functional
# Details: route intraperitoneal
row,Compound,ILS at 50 mg/kg [%]
1,CCCCCCCCCC(=O)OC[C@H]1O[C@@H]2[C@@H](Oc3nc(=N)ccn32)[C@@H]1OC(=O)CCCCCCCCC.Cl,14
2,CCCCCCCCCCCCCCCCCC(=O)OC[C@H]1O[C@@H]2[C@@H](Oc3nc(=N)ccn32)[C@@H]1OC(=O)CCCCCCCCCCCCCCCCC.Cl,68

# Tested on: L1210
# Experiment: Antitumor activity against mouse L1210 cells allografted in BDF1 mouse assessed as increase in life span at 200 mg/kg, ip administered 24 hrs post-implantation measured up to 30 days relative to control
# Type: functional
# Details: route intraperitoneal
row,Compound,ILS at 200 mg/kg [%]
1,CCCCCCCCCCCCCCCCCC(=O)OC[C@H]1O[C@@H]2[C@@H](Oc3nc(=N)ccn32)[C@@H]1OC(=O)CCCCCCCCCCCCCCCCC.Cl,125

# Tested on: L1210
# Experiment: Antitumor activity against mouse L1210 cells allografted in BDF1 mouse assessed as increase in life span at 1000 mg/kg, ip administered 24 hrs post-implantation measured up to 30 days relative to control
# Type: functional
# Details: route intraperitoneal
row,Compound,ILS at 1000 mg/kg [%]
1,CCCCCCCCCCCCCCCCCC(=O)OC[C@H]1O[C@@H]2[C@@H](Oc3nc(=N)ccn32)[C@@H]1OC(=O)CCCCCCCCCCCCCCCCC.Cl,> 255

# Tested on: Mus musculus
# Experiment: Toxicity in BDF1 mouse allografted with mouse L1210 cells assessed as reduction in average life span at 200 mg/kg, ip administered 24 hrs post-implantation measured up to 30 days relative to control
# Type: organism-based
# Set-up: dose 200 mg/kg, route intraperitoneal; scale not given: the % may be the effect or the level left
# Details: in vivo
row,Compound,Activity [%]
1,CCCCCCCCCC(=O)OC[C@H]1O[C@@H]2[C@@H](Oc3nc(=N)ccn32)[C@@H]1OC(=O)CCCCCCCCC.Cl,69

# Tested on: Mus musculus
# Experiment: Toxicity in BDF1 mouse allografted with mouse L1210 cells assessed as reduction in average life span at 1000 mg/kg, ip administered 24 hrs post-implantation measured up to 30 days relative to control
# Type: organism-based
# Set-up: dose 1000 mg/kg, route intraperitoneal; scale not given: the % may be the effect or the level left
# Details: in vivo
row,Compound,Activity [%]
1,CCCCCCCCCC(=O)OC[C@H]1O[C@@H]2[C@@H](Oc3nc(=N)ccn32)[C@@H]1OC(=O)CCCCCCCCC.Cl,72

# Tested on: L1210
# Experiment: Antitumor activity against mouse L1210 cells allografted in BDF1 mouse assessed as survival at 50 mg/kg, ip administered 24 hrs post-implantation after 30 days
# Type: functional, organism-based
# Set-up: dose 50 mg/kg
# Details: not given
row,Compound,Activity
1,CCCCCCCCCC(=O)OC[C@H]1O[C@@H]2[C@@H](Oc3nc(=N)ccn32)[C@@H]1OC(=O)CCCCCCCCC.Cl,inactive
2,CCCCCCCCCCCCCCCCCC(=O)OC[C@H]1O[C@@H]2[C@@H](Oc3nc(=N)ccn32)[C@@H]1OC(=O)CCCCCCCCCCCCCCCCC.Cl,inactive

# Tested on: L1210
# Experiment: Antitumor activity against mouse L1210 cells allografted in BDF1 mouse assessed as survival at 200 mg/kg, ip administered 24 hrs post-implantation after 30 days
# Type: functional, organism-based
# Set-up: dose 200 mg/kg
# Details: not given
row,Compound,Activity
1,CCCCCCCCCCCCCCCCCC(=O)OC[C@H]1O[C@@H]2[C@@H](Oc3nc(=N)ccn32)[C@@H]1OC(=O)CCCCCCCCCCCCCCCCC.Cl,inactive

# Tested on: L1210
# Experiment: Antitumor activity against mouse L1210 cells allografted in BDF1 mouse assessed as survival at 1000 mg/kg, ip administered 24 hrs post-implantation after 30 days
# Type: functional, organism-based
# Set-up: dose 1000 mg/kg
# Details: not given
row,Compound,Activity
1,CCCCCCCCCCCCCCCCCC(=O)OC[C@H]1O[C@@H]2[C@@H](Oc3nc(=N)ccn32)[C@@H]1OC(=O)CCCCCCCCCCCCCCCCC.Cl,Active

# Tested on: Mus musculus
# Experiment: Toxicity in BDF1 mouse allografted with mouse L1210 cells assessed as survival at 200 mg/kg, ip administered 24 hrs post-implantation after 30 days
# Type: organism-based
# Set-up: dose 200 mg/kg, route intraperitoneal
# Details: in vivo, 720 h
row,Compound,Activity
1,CCCCCCCCCC(=O)OC[C@H]1O[C@@H]2[C@@H](Oc3nc(=N)ccn32)[C@@H]1OC(=O)CCCCCCCCC.Cl,Toxic

# Tested on: Mus musculus
# Experiment: Toxicity in BDF1 mouse allografted with mouse L1210 cells assessed as survival at 1000 mg/kg, ip administered 24 hrs post-implantation after 30 days
# Type: organism-based
# Set-up: dose 1000 mg/kg, route intraperitoneal
# Details: in vivo, 720 h
row,Compound,Activity
1,CCCCCCCCCC(=O)OC[C@H]1O[C@@H]2[C@@H](Oc3nc(=N)ccn32)[C@@H]1OC(=O)CCCCCCCCC.Cl,Toxic

# Tested on: L1210
# Experiment: Antitumor activity against mouse L1210 cells allografted in po dosed BDF1 mouse administered 24 hrs post-implantation
# Type: functional, organism-based
# Details: not given
row,Compound,Activity
1,CCCCCCCCCC(=O)OC[C@H]1O[C@@H]2[C@@H](Oc3nc(=N)ccn32)[C@@H]1OC(=O)CCCCCCCCC.Cl,inactive
2,CCCCCCCCCCCCCCCCCC(=O)OC[C@H]1O[C@@H]2[C@@H](Oc3nc(=N)ccn32)[C@@H]1OC(=O)CCCCCCCCCCCCCCCCC.Cl,inactive
